Data on 1 compound can be found in PMC8600920 (Antiviral Research, 2021).

A value given as a limit tells only on which side of the number the result lay.

One data set has as its system HCoV-NL63. As to the kind of experiment: HCoV-NL63 cytopathic effects. To be noted: Human coronavirus NL63, LLC-MK2, 120 h, read-out: Anti-HCoV-NL63 (EC50/μM). It is filed as cell-based. (Cytopathic effects are the visible damage that an infection or toxin causes in cultured cells.)
The nature of another data set: in vitro. As to conditions: human.
For the next data set, the system named is HCoV-OC43. As to the kind of experiment: HCoV-OC43 cytopathic effects. It is filed as cell-based. As to conditions: Betacoronavirus 1, OC43, HCT-8, 120 h, read-out: Anti-HCoV-OC43 (EC50/μM).

In the case of `CCC(CC)COC(=O)[C@H](C)N[P@](=O)(OC[C@H]1O[C@@](C#N)(c2ccc3c(N)ncnn23)[C@H](O)[C@@H]1O)Oc1ccccc1` [Remdesivir], the figures for the EC50 in the data set on HCoV-NL63 and with HCoV-OC43 were 2.89 µM and 0.82 µM, respectively. In “in vitro”, this compound had a CC50 of over 100 µM.
